“Also recorded” adds a separate entry of the source. Like-named read-outs stand apart in the source and are kept apart here.
Key:
[1] = tested on: CA1 neurons (rat hippocampal slices); details: data from Ref. 14, cited from earlier work; for IC50: CA1 region; for sensitization: fractional increase in potency
[2] = tested on: N-acetyl α-linked acidic dipeptidase; details: hydrolyzes the brain dipeptide Ac-Asp-Glu-OH; cited from earlier work
[3] = tested on: QUIS effect in hippocampal slices (CA1 region); assay: Capability to induce, preblock and reverse the QUIS effect in hippocampal slices; assay type: cell-based, rat (male Sprague-Dawley); details: sensitization of slices to depolarization by AP4
Procedure: L-Quisqualic acid analogs 2-5 were tested for their capability to induce, preblock and reverse the QUIS effect by the procedures disclosed in the examples hereinbelow. […] Thus, L-quisqualic acid remains the only compound known to induce the QUIS effect. In addition, none of the analogs were capable of preblocking or reversing the sensitization induced by L-quisqualic acid. […] While the precise details are unknown, an induction mechanism shown in FIG. 2, involving multiple sites of interaction such as this, would explain the apparent strict structural requirements for induction, reversal and preblocking of the QUIS effect.
(§1) Transverse hippocampal slices were obtained from 30-100 day-old male Sprague-Dawley rats. Rats were anesthetized with urethane (1.5 g/kg ip) and then decapitated. The brain was removed and placed in ice-cold preparatory medium comprised of 124 mM NaCl, 3.3 mM KCl, 10 mM MgSO4, 0.5 mM CaCl2, 1.2 mM KH2 PO4, 10 mM glucose, and 26 mM NaHCO3 equilibrated with 95% O2 /5% CO2 (pH 7.4). The hippocampus was then isolated and sliced into 500-μm slices using a Campden Instruments VibroSlice microtome. Slices were submerged in preparatory medium at 28° C. which was aerated with 95% O2 /5% CO2 and incubated for 45 min. Slices were then transferred to recording medium comprised of 124 mM NaCl, 3.3 mM KCl, 2.4 mM MgSO4, 2.5 mM CaCl2, 1.2 mM KH2 PO4, 10 mM glucose, and 26 mM NaHCO3 aerated with 95% O2 /5% CO2 (pH 7.4) and incubated at 28° C. for at least 30 min. prior to use.
(§2) Slices were transferred to a small recording chamber containing the recording medium at 34° C. Initially, the upper surface of the slice was exposed to a humid atmosphere containing 95% O2 /5% CO2. Bipolar stimulation (0.1 ms, 10-40 V, 0.1 Hz) was delivered to the Schaffer collateral axons via a pair of Teflon-coated stainless steel wires (0.003 in.). […] The evoked extracellular synaptic field potentials were observed using a storage oscilloscope, and the peak amplitudes were sampled and recorded with a chart recorder. When a suitable field potential was obtained, the slice was submerged in oxygenated medium (34° C.) and the response allowed to stabilize. Test compounds were dissolved in oxygenated medium and were added and removed using a push/pull device allowing a complete change of medium within 30 sec.
Slices were exposed to L-AP4, L-quisqualic acid and the test compound in the following sequence, which is a modification of the previous method: (1) 200 μM L-AP4, (2) test compound, (3) 200 μM L-AP4, (4) 16 μM L-quisqualic acid, (5) 200 μM L-AP4, (6) test compound, (7) 200 μM L-AP4. […] Full concentration-response curves were determined for the test compound both before and after treatment of slices with L-quisqualic acid. […]

kainate receptor = details: cited from earlier work
[4] = tested on: CA1 neurons in rat hippocampal slices; details: cited from earlier work
AMPA receptor = details: cited from earlier work
metabotropic receptor = details: cited from earlier work
[5] = tested on: Ca^2+ /Cl^- -dependent glutamic acid uptake system; details: brain synaptic plasma membrane preparations; cited from earlier work
[6] = tested on: AMPA/Quisqualate Excitatory Amino Acid Receptor; assay: [3H]AMPA radioligand receptor binding assay; details: for activity at the AMPA/quisqualate receptor: [3H]AMPA binding; for % Inhibition of [3H]AMPA binding: compound concentration of 10^-5 M
Description: The assay that was used was a radioligand receptor binding assay using [^3 H]α-amino-3-hydroxy-5-methylisoxazole-4-propionic acid ([^3 H]AMPA) as the radioligand [Murphy et al., Neurochemical Research, 12, 775 (1987)].
^a Percent inhibition of [^3 H]AMPA binding at a compound
concentration of 10^-5 M.

[7] = tested on: CA1 neurons (rat hippocampal slices); assay: Inhibition of evoked synaptic field potential of CA1 neurons in hippocampal slices, before and after L-quisqualic acid exposure; assay type: cell-based, rat (male Sprague-Dawley); details: for change in IC50 / sensitization after L-quisqualic acid: hippocampal slices after exposure to L-quisqualic acid; for sensitization: fractional increase in potency after L-quisqualic acid (IC50 before vs after); for stimulatory activity prior to treatment with L-quisqualic acid: prior to treatment of hippocampal slices with L-quisqualic acid; for decrease of IC50 values after exposure of the tissue to L-quisqualic acid: IC50 before vs after L-quisqualic acid
Procedure: The IC50 values for inhibition of the evoked synaptic field potential of CA1 neurons of analogs 2-5 were determined both before and after slices were exposed to L-quisqualic acid. Varying degrees of sensitization were observed as shown by the data on Table 2.
Potencies were determined before and after a 4minute exposure of slices t
16 μM Lquisqualic acid. Sensitization refers to the fractional increas
as §1, §2
Slices were exposed to L-AP4, L-quisqualic acid and the test compound in the following sequence, which is a modification of the previous method: (1) 200 μM L-AP4, (2) test compound, (3) 200 μM L-AP4, (4) 16 μM L-quisqualic acid, (5) 200 μM L-AP4, (6) test compound, (7) 200 μM L-AP4. Slices were washed between each addition of new drug until the peak amplitude of the field potential returned to its pretest level. Full concentration-response curves were determined for the test compound both before and after treatment of slices with L-quisqualic acid. In addition to determining the potency of compounds before and after addition of L-quisqualic acid, this protocol was designed to test for the ability of test compounds to induce the QUIS effect (and thus mimic the effects of L-quisqualic acid) and to test for the "preblocking" and "reversal" effects which have been previously observed only for L-homocysteine sulfinic acid, L-serine O-sulfate, and L-α-aminoadipic acid.
Concentration-response data were obtained by exposing the slice to a concentration of drug which was subthreshold for inhibition of the field potential. Drug concentration was doubled every 4 min until the response had either declined more than 70% or the bath concentration of the drug exceeded 10 mM. […] IC50 values were obtained. by plotting the fractional response remaining at the end of 4 min versus the log of the bath concentration of the drug. The concentration which produced a 50% inhibition of the peak amplitude (IC50) was interpolated from the graph. All reported IC50 values are the mean values for four or more experiments. The results are summarized on Table 2, above.

[8] = tested on: QUIS effect in CA1 neurons; details: cited from earlier work; for reversal of the QUIS effect after it has been induced: CA1 neurons; for blocking (preblocking) of the QUIS effect: brief exposure of CA1 neurons, removed prior to L-quisqualic acid
[9] = after 4-minute exposure to 16 μM L-quisqualic acid, read-out: IC50 Values after quisqualic acid
[10] = before L-quisqualic acid, read-out: IC50 Values before quisqualic acid
[11] = Rattus norvegicus, Neuron, 4 min, CA1 region, after 4-minute exposure of slices to 16 μM L-quisqualic acid, read-out: IC50 Values ± SEM after quisqualic acid
[12] = Rattus norvegicus, Neuron, CA1 region of the hippocampus, before exposure to L-quisqualic acid, mean of four or more experiments, read-out: IC50 Values ± SEM before quisqualic acid

## N[C@@H](Cn1oc(=O)[nH]c1=O)C(=O)O [L-quisqualic acid, L-Quisqualic acid]
[1]; [9]
  IC50: 2.9 µM
[1]; [10]
  IC50: 3.9 µM
[1]
  sensitization: 1.3
[2]
  inhibition of N-acetyl α-linked acidic dipeptidase: inhibits
[3]
  induction of the QUIS effect: only L-quisqualic acid sensitized slices to depolarization by AP4
Kainate receptor
  affinity for the kainate receptor: high affinity
[4]
  sensitization of CA1 neurons to depolarization by D- or L-AP4 and related phosphonates: 30-100 fold
AMPA receptor
  affinity for the AMPA receptor: high affinity
Metabotropic receptor
  affinity for the metabotropic receptor: high affinity
[5]
  inhibition of Ca2+/Cl- -dependent glutamic acid uptake system: inhibits

## N[C@@H](CC1CC(=O)NC1=O)C(=O)O (mixture of isomers) [Compound 5A, 2,5-Dioxo-α(S)-amino-3(RS)-pyrrolidinepropanoic Acid]
[6]
  activity at the AMPA/quisqualate receptor: active at the AMPA/quisqualate receptor
  % Inhibition of [3H]AMPA binding: 55.5%
[7]; [11]
  IC50: > 10000 µM
[7]; [12]
  IC50: > 10000 µM
[7]
  change in IC50 / sensitization after L-quisqualic acid: No significant change in IC50 values

## N[C@@H](CC1=CC(=O)NC1=O)C(=O)O [Compound 2, (S)-2,5-Dihydro-2,5-dioxo-α-amino-1H-pyrrole-3-propanoic Acid]
[6]; [3H]AMPA radioligand
  Ki: 0.37 µM
[6]
  % Inhibition of [3H]AMPA binding: 93.5%
[7]; [11]
  IC50: 9.5 ± 2.5 µM
[7]; [12]
  IC50: 21 ± 4.4 µM
[7]
  sensitization: 2.2
  stimulatory activity prior to treatment with L-quisqualic acid: high stimulatory activity

## N[C@@H](CCCC(=O)O)C(=O)O [L-α-aminoadipic acid]
[8]
  reversal of the QUIS effect after it has been induced: capable of reversing the QUIS effect
  blocking (preblocking) of the QUIS effect: the QUIS effect can be blocked

## N[C@@H](COS(=O)(=O)O)C(=O)O [L-serine O-sulfate]
[8]
  reversal of the QUIS effect after it has been induced: capable of reversing the QUIS effect
  blocking (preblocking) of the QUIS effect: the QUIS effect can be blocked

## N[C@@H](CCS(=O)O)C(=O)O [L-homocysteinesulfinic acid]
[8]
  reversal of the QUIS effect after it has been induced: capable of reversing the QUIS effect
  blocking (preblocking) of the QUIS effect: the QUIS effect can be blocked

## N[C@@H](CN1CC(=O)NC1=O)C(=O)O [Compound 6]
[3]
  induction of the QUIS effect: did not exhibit the QUIS effect
[7]; [11]
  IC50: 0.8 ± 0.26 µM
[7]; [12]
  IC50: 1.4 ± 0.6 µM
[7]; Rattus norvegicus, Neuron, CA1 region of the rat hippocampus, read-out: IC50, stimulatory effect on CA1 region of the rat hippocampus
  IC50: 1.4 ± 0.6 µM
[7]
  sensitization: 1.7
  stimulatory activity prior to treatment with L-quisqualic acid: high stimulatory activity

## CN1C(=O)C=C(C[C@H](N)C(=O)O)C1=O [Compound 3, (S)-2,5-Dihydro-2,5-dioxo-α-amino-1-methylpyrrole-3-propanoic Acid]
[6]
  % Inhibition of [3H]AMPA binding: 1.1%
[3]
  induction of the QUIS effect: do not induce the QUIS effect
[7]
  decrease of IC50 values after exposure of the tissue to L-quisqualic acid: more than 7 fold
  sensitization: 14.0
  change in IC50 / sensitization after L-quisqualic acid: the slices are sensitized to depolarization by these compounds following exposure to L-quisqualic acid; also recorded: first non-phosphorus compounds to which hippocampal slices are known to become sensitized
[7]; [11]
  IC50: 6.8 ± 2.3 µM
[7]; [12]
  IC50: 95 ± 19 µM

## N[C@@H](CC1=CC(=O)N(CC(=O)O)C1=O)C(=O)O [Compound 4, (S)-2,5-Dihydro-2,5-dioxo-α-amino-1-(carboxymethyl)pyrrole-3-propanoic Acid]
[3]
  induction of the QUIS effect: do not induce the QUIS effect
[7]
  decrease of IC50 values after exposure of the tissue to L-quisqualic acid: more than 7 fold
  sensitization: 7.7
  change in IC50 / sensitization after L-quisqualic acid: the slices are sensitized to depolarization by these compounds following exposure to L-quisqualic acid; also recorded: first non-phosphorus compounds to which hippocampal slices are known to become sensitized
[7]; [11]
  IC50: 375 ± 75 µM
[7]; [12]
  IC50: 2900 ± 320 µM

## N[C@@H](CC1CC(=O)NC1=O)C(=O)O (mixture of isomers) [Compound 5B, 2,5-Dioxo-α(S)-amino-3(RS)-pyrrolidinepropanoic Acid]
[6]
  activity at the AMPA/quisqualate receptor: active at the AMPA/quisqualate receptor
[7]; CA1 region of the hippocampus, before exposure to L-quisqualic acid, mean of four or more experiments, read-out: IC50 Values ± SEM before quisqualic acid
  IC50: 9200 ± 1100 µM
[7]; CA1 region, after 4-minute exposure of slices to 16 μM L-quisqualic acid, read-out: IC50 Values ± SEM after quisqualic acid
  IC50: 6800 ± 930 µM
[7]
  sensitization: 1.3
  change in IC50 / sensitization after L-quisqualic acid: No significant change in IC50 values

## N[C@H](CCP(=O)(O)O)C(=O)O [D-AP4, D-2-amino-4-phosphonobutanoic acid]
[1]; [9]
  IC50: 152 µM
[1]; [10]
  IC50: 2600 µM
[1]
  sensitization: 17

## N[C@H](Cn1oc(=O)[nH]c1=O)C(=O)O [D-quisqualic acid, reference compound]
[7]; Rattus norvegicus, Neuron, 4 min, read-out: IC50 Values ± SEM after quisqualic acid
  IC50: 10 ± 1.7 µM
[7]; Rattus norvegicus, Neuron, read-out: IC50 Values ± SEM before quisqualic acid
  IC50: 78 ± 8.5 µM
[7]
  sensitization: 7.5
  change in IC50 / sensitization after L-quisqualic acid: slices become sensitized

## N[C@@H](CCP(=O)(O)O)C(=O)O [L-AP4, L-2-amino-4-phosphonobutanoic acid]
[1]; [9]
  IC50: 55 µM
[1]; [10]
  IC50: 1800 µM
[1]
  sensitization: 33

— patent publication US5359087A, “Bioactive quisqualic acid analogs” (Regents of the University of Minnesota, priority 1993, dated 1994)
